In US8329919B2, “Salt hydrates” (Novartis AG, priority 2002, dated 2012):
“And” between values parts separate entries of the source, which are not always exact repeats. Equal entries are not always repeated.

Experiment: Thermogravimetry: weight loss, i.e. water loss, as a function of temperature (thermobalance TGS-2)
Assay type: physicochemical
Conditions: heating rate 10 K·min^−1, water-free N2 atmosphere
Protocol: Using thermogravimetry, in a water-free N2 atmosphere, the weight loss, i.e. the water loss for the tetrahydrate of the calcium salt of valsartan A1,Ca as a function of temperature, was measured at a heating rate of 10 K·min^−1. […]
Using thermogravimetry, in a water-free N2 atmosphere, the weight loss, i.e. the water loss for the trihydrate of the calcium salt of valsartan in the polymorphic form B1,Ca as a function of temperature, was measured at a heating rate of 10 K·min^−1.
Using thermogravimetry, in a water-free N2 atmosphere, the weight loss, i.e. the water loss for the trihydrate B2,Ca as a function of temperature, was measured at a heating rate of 10 K·min^−1. The results for the polymorph B2,Ca of the trihydrate of the calcium salt of valsartan are illustrated in table 4.
Using thermogravimetry, in a water-free N2 atmosphere, the weight loss, i.e. the water loss for the trihydrate B3,Ca as a function of temperature, was measured at a heating rate of 10 K·min^−1. The results for the polymorphic form B3,Ca of the trihydrate of the calcium salt of valsartan are illustrated in table 5.
Using thermogravimetry, in a water-free N2 atmosphere, the weight loss, i.e. the water loss for the di-(calcium salt of valsartan) pentahydrate D1,Ca as a function of temperature, was measured at a heating rate of 10 K·min^−1.
The instrument used for the calorimetric data is throughout a DSC Pyris 1 (Differential Scanning calorimeter) obtained from Perkin-Elmer Corp., Norwalk, Conn. USA. The measurements are performed with samples enclosed in a sealed gold specimen container with an internal free volume of ca. 22 microliters, with a sample weight of 2 to 4 mg and with a heating rate of Tr=10K·min^−1. […] The instrument used was a TGS-2 (Perkin-Elmer Corp., Norwalk, Conn. USA) and the measurement was performed in a water free atmosphere. The heating rate selected was 10 K·min^−1. The weight loss is illustrated in table 7.
The heating rate selected was 10K·min^−1.
Using thermogravimetry, in a water-free N2 atmosphere, the weight loss, i.e. the water loss for the tetrahydrate as a function of temperature, was measured at a heating rate of 10 K·min^−1. The results for the calcium salt of valsartan tetrahydrate A0,Ca are listed in the following: […]
Using thermogravimetry, in a water-free N2 atmosphere, the weight loss, i.e. the water loss for the tetrahydrate of the calcium salt of valsartan as a function of temperature, was measured at a heating rate of 10 K·min^−1.

For “(S)—N-(1-carboxy-2-methyl-prop-1-yl)-N-pentanoyl-N-[2′-(1H-tetrazol-5-yl)-biphenyl-4-ylmethyl]-amine calcium salt trihydrate [B1,Ca]”, the “weight loss or water loss in %” value (temperature 25 °C, calcium salt trihydrate) was 0.4 ± 0.3% and 0.5%, the “weight loss or water loss in %” value (temperature 50 °C, calcium salt trihydrate) was 2.0 ± 0.5% and 2.0% and the “weight loss or water loss in %” value (temperature 75 °C, calcium salt trihydrate) was 4.0 ± 0.5% and 3.9%. The “weight loss or water loss in %” value (temperature 100 °C, calcium salt trihydrate) was 6.3 ± 0.5% and 5.7%, the “weight loss or water loss in %” value (temperature 125 °C, calcium salt trihydrate) was 8.5 ± 0.5% and 8.1% and the “weight loss or water loss in %” value (temperature 150 °C, calcium salt trihydrate) was 9.5 ± 0.5% and 9.2%. For the same substance, the “weight loss or water loss in %” value (temperature 175 °C, calcium salt trihydrate) was 9.7 ± 0.5% and 9.5%, the “weight loss or water loss in %” value (temperature 200 °C) was 9.7% and the “weight loss or water loss in %” value (temperature 200 °C, calcium salt trihydrate) was 9.9 ± 0.5%. For the same substance, the “weight loss or water loss in %” value (temperature 225 °C, calcium salt trihydrate) was 9.9 ± 0.5% and 9.7%, the “weight loss or water loss in %” value (temperature 250 °C, calcium salt trihydrate) was 10.0 ± 0.5% and 9.9% and the “weight loss or water loss in %” value (temperature 275 °C, calcium salt trihydrate) was 10.3 ± 0.5% and 10.2%.

In the case of “(S)—N-(1-carboxy-2-methyl-prop-1-yl)-N-pentanoyl-N-[2′-(1H-tetrazol-5-yl)-biphenyl-4-ylmethyl]-amine calcium salt trihydrate [B2,Ca]”, the “weight loss or water loss in %” value (temperature 25 °C) is reported as 0%, the “weight loss or water loss in %” value (temperature 25 °C, calcium salt trihydrate, crystalline trihydrate B2,Ca polymorph) is reported as 0.1 ± 0.2% and the “weight loss or water loss in %” value (temperature 50 °C, calcium salt trihydrate, crystalline trihydrate B2,Ca polymorph) is reported as 0.9 ± 0.3%. The “weight loss or water loss in %” value (temperature 75 °C, calcium salt trihydrate, crystalline trihydrate B2,Ca polymorph) was 2.2 ± 0.5%, the “weight loss or water loss in %” value (temperature 100 °C, calcium salt trihydrate, crystalline trihydrate B2,Ca polymorph) was 5.8 ± 0.5% and the “weight loss or water loss in %” value (temperature 125 °C, calcium salt trihydrate, crystalline trihydrate B2,Ca polymorph) was 8.9 ± 0.5%. The “weight loss or water loss in %” value (temperature 150 °C, calcium salt trihydrate, crystalline trihydrate B2,Ca polymorph) was 9.9 ± 0.5%, the “weight loss or water loss in %” value (temperature 175 °C, calcium salt trihydrate, crystalline trihydrate B2,Ca polymorph) was 10.2 ± 0.5% and the “weight loss or water loss in %” value (temperature 200 °C) was 9.7%. The “weight loss or water loss in %” value (temperature 200 °C, calcium salt trihydrate, crystalline trihydrate B2,Ca polymorph) was 10.3 ± 0.5%, the “weight loss or water loss in %” value (temperature 225 °C, calcium salt trihydrate, crystalline trihydrate B2,Ca polymorph) was 10.5 ± 0.5% and the “weight loss or water loss in %” value (temperature 250 °C, calcium salt trihydrate, crystalline trihydrate B2,Ca polymorph) was 10.5 ± 0.5%. The “weight loss or water loss in %” value (temperature 275 °C, calcium salt trihydrate, crystalline trihydrate B2,Ca polymorph) was 10.8 ± 0.5%.
